Here are results for four molecules from publication PMC12749127 (Scientific Reports, 2025).

The test system of one test is myo-inositol levels. Kind of test: Cellular myo-inositol levels. The note with it: 30 mM LiCl or 25 µM ebselen. It is filed as cell-based.
A further test relates to DENV-2. In words: IMPA1 silencing using siRNA, DENV-2 virus titer in imHC cells. It is filed as cell-based. The following applies: Dengue virus, DENV2, read-out: decrease of inhibitory effect of ebselen in si_IMPA1-silenced cells.
The target of test [1] is T1, recombinant human inositol monophosphatase 1 (IMPA1) (Homo sapiens, UniProt P29218).
T1 sequence (P29218 1-277): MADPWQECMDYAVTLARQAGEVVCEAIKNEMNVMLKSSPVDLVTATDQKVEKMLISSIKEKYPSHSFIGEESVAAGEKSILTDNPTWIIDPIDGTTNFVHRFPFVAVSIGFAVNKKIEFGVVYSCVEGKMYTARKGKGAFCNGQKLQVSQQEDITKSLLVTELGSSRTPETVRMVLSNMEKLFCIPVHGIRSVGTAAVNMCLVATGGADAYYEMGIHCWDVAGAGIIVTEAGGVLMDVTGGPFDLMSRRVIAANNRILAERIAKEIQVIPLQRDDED
Kind of test: In vitro enzymatic assay of IMPA activity. It is filed as biochemical.

The next test relates to PI(4)P and ZIKV-NS1. In words: Immunofluorescence of PI. It is filed as cell-based. The note with it: ZIKV-infected imHC cells, MOI 1, 48 hpi, ebselen treatment.
In a further test the target is recombinant bovine IMPA. The following applies: read-out: inhibition constant (Ki); cited from earlier work.
The target of the next test is recombinant human IMPA. The note with it: read-out: inhibition constant (Ki); cited from earlier work.
The next test relates to IMPA. The note with it: in vitro assays; cited from earlier work.
Another test deals with PI(4)P. Kind of test: Immunofluorescence of PI. It is filed as cell-based, human. The note with it: imHC cells, 24 hours of treatment.

In the case of `O=c1c2ccccc2[se]n1-c1ccccc1` [Ebselen], the “myo-inositol levels vs untreated control (in words)” value in the test with myo-inositol levels was “significant reduction”. Also, the inhibition at 20 µM in the test on DENV-2 was ~16%. Also, the IC50 in test [1] came out at 0.95 µM. In the test with PI(4)P and ZIKV-NS1, the “PI(4)P levels (in words)” value is “reduction” and the “ZIKV-NS1 protein expression (in words)” value is reported as “reduction”.
Regarding `CC(Oc1ccc(O)cc1)(P(=O)(O)O)P(=O)(O)O` [L-690,330], the Ki on recombinant bovine IMPA was 0.19 µM; at recombinant human IMPA, 0.27 µM. The “potency relative to lithium (in words)” value with IMPA was “approximately a thousand-fold greater potency than lithium”.
Take `[Cl-].[Li+]` [LiCl]: the “myo-inositol levels vs untreated control (in words)” value in the test with myo-inositol levels is given as “significant reduction”.
With `O[C@H]1[C@H](O)[C@@H](O)[C@H](O)[C@@H](O)[C@H]1O` [inositol], the “PI(4)P levels following the addition of inositol (in words)” value with PI(4)P is listed as “increased levels”.

As a reminder, the IC50 is the concentration that gives 50% inhibition. One may read the Ki as the dissociation constant of the complex between target and ligand, obtained from inhibition or displacement.
